Results: ChEMBL document CHEMBL2424617, “Microwave-assisted synthesis and anticonvulsant activity of 5,6-bisaryl-1,2,4-triazine-3-thiol derivatives” (Med Chem Res, 2013)
The source made the active and inactive calls. The calls are words filed in the database; no cut-off is given here.

How the values were obtained:
Mus musculus [1] = test: Anticonvulsant activity in NMRI mouse assessed as […] of PTZ required to induce seizure at 100 mg/kg, ip after 30 mins (reference value: 31.5 +/- 4.4 mg/kg); format: functional
Mus musculus [2] = test: Neurotoxicity in NMRI mouse assessed as impairment of motor coordination at 100 mg/kg after 30 mins by chimney test; format: toxicity, organism-based; parameters: dose 100 mg/kg; settings: in vivo, 0.5 h
Mus musculus [3] = test: Neurotoxicity in NMRI mouse assessed as impairment of motor coordination at 100 mg/kg after 30 mins by rotarod test; format: toxicity, organism-based; parameters: dose 100 mg/kg; settings: in vivo, 0.5 h
Mus musculus [4] = test: Anticonvulsant activity in NMRI mouse assessed as protection against electroshock-induced seizure at 100 mg/kg after 30 mins; format: functional
Mus musculus [5] = test: Anticonvulsant activity in NMRI mouse assessed as protection against electroshock-induced seizure at 12.5 mg/kg, ip after 30 mins; format: functional; settings: route intraperitoneal
Mus musculus [6] = test: Anticonvulsant activity in NMRI mouse assessed as […] of PTZ required to induce seizure at 12.5 mg/kg, ip after 30 mins (reference value: 31.5 +/- 4.4 mg/kg); format: functional
Mus musculus [7] = test: Neurotoxicity in NMRI mouse assessed as impairment of motor coordination at 12.5 mg/kg, ip after 30 mins by chimney test; format: toxicity, organism-based; parameters: dose 12.5 mg/kg, route intraperitoneal; settings: in vivo, 0.5 h
Mus musculus [8] = test: Neurotoxicity in NMRI mouse assessed as impairment of motor coordination at 12.5 mg/kg, ip after 30 mins by rotarod test; format: toxicity, organism-based; parameters: dose 12.5 mg/kg, route intraperitoneal; settings: in vivo, 0.5 h

Structure (SMILES) | Activity (Mus musculus [1]) [mg/kg] | Activity (Mus musculus [2]) | Activity (Mus musculus [3]) | Activity (Mus musculus [4]) | Activity (Mus musculus [5]) [%] | Activity (Mus musculus [6]) [mg/kg] | Activity (Mus musculus [7]) | Activity (Mus musculus [8])
Sc1nnc(-c2cccs2)c(-c2cccs2)n1 | 24.42 | Non-toxic | Non-toxic | – | – | – | – | –
Cc1ccc(-c2nnc(S)nc2-c2ccc(C)cc2)cc1 | 40.4 | Non-toxic | – | – | – | – | – | –
COc1ccc(-c2nnc(SCc3cccnc3)nc2-c2ccc(OC)cc2)cc1 | 41.5 | Non-toxic | Non-toxic | – | – | – | – | –
COc1ccc(-c2nnc(SC)nc2-c2ccc(OC)cc2)cc1 | 41.4 | Non-toxic | Non-toxic | – | – | – | – | –
CSc1nnc(-c2ccc(F)cc2)c(-c2ccc(F)cc2)n1 | – | 33% | Non-toxic | – | – | – | – | –
CSc1nnc(-c2ccc(C)cc2)c(-c2ccc(C)cc2)n1 | 39.4 | Non-toxic | Non-toxic | – | – | – | – | –
CSc1nnc(-c2cccs2)c(-c2cccs2)n1 | 38.23 | Non-toxic | Non-toxic | – | – | – | – | –
Clc1ccc(-c2nnc(SCc3ccncc3)nc2-c2ccc(Cl)cc2)cc1 | 43 | Non-toxic | – | – | – | – | – | –
Cc1ccc(-c2nnc(SCc3ccncc3)nc2-c2ccc(C)cc2)cc1 | 49.4 | Non-toxic | Non-toxic | 100% | – | – | – | –
Cc1ccc(-c2nnc(SCc3cccnc3)nc2-c2ccc(C)cc2)cc1 | 47 | Non-toxic | Non-toxic | – | – | – | – | –
COc1ccc(-c2nnc(S)nc2-c2ccc(OC)cc2)cc1 | – | Non-toxic | Non-toxic | inactive | – | – | – | –
Nc1nnc(-c2cccc(Cl)c2Cl)c(N)n1 [LAMOTRIGINE] | – | – | – | – | 100 | 72.9 | Non-toxic | Non-toxic
Sc1nnc(-c2ccc(Cl)cc2)c(-c2ccc(Cl)cc2)n1 | – | Non-toxic | Non-toxic | – | – | – | – | –
